Laboratory results as given in patent publication US9983218B2, “Indole and indoline derivatives and methods of use thereof” (AbbVie Inc., priority 2008, dated 2018).

Test system: SK-N-SH human neuroblastoma cells
Experiment: Serum deprivation/JC-1 mitochondrial membrane potential (MMP) assay
Assay type: cell-based
Details: Homo sapiens; for Emax: SK-N-SH, percent maximal intensity in JC-1 ratio normalized to 10 μM dimebolin, read-out: JC-1 max %; for EC50: SK-N-SH cells, serum deprivation ~18 hours, JC-1 ratio normalized to peak value for 10 μM dimebolin, single curve fit to mean data of n=2-3, read-out: EC50
Protocol: SK-N-SH human neuroblastoma cells obtained from American Type Culture Collection (Rockville, Md.) were maintained in the log phase of growth in Minimal Essential Media (MEM), 10% heat inactivated fetal calf serum and 100 units/mL antibiotic-antimycotic (AA). Cells were cultured and maintained in a humidified incubator at 37° C. under 5% CO2 and 95% air. Cells were trypsinized (0.25%) and subcultured every 3 days and used from 15-18 passages. All cell culture supplies were obtained from Invitrogen (Carlsbad, Calif.).
SK-N-SH cells were plated 2-3 days in advance at a concentration of 50,000 cells/well onto collagen coated black-walled 96 well plates (Becton-Dickinson, Bedford, Mass.) in a total volume of 200 μL. On day of experimental treatment, the media containing serum was aspirated from each well and rinsed once with MEM/1% AA without serum. The cells then were incubated overnight in 100 μL of MEM/1% AA (no serum) with and without dimebolin or novel chemical entities overnight for ˜18 hours. The following day, JC-1 dye (5,5′,6,6′-tetrachloro-1,1′,3,3′-tetraethylbenzimidazolcarbocyanide) was diluted 1:10 into MEM media according to the JC-1 Mitochondrial Membrane Potential Assay Kit: (Cayman Chemical Company, Ann Arbor, Mich.) and then 10 μL of the JC-1 dye solution was added to each well. The plates were centrifuged for 5 minutes at 400×g at room temperature followed by 35 minute incubation at 37° C. The plates were washed twice with 200[…] μL of provided Assay Buffer followed an addition of 100 μL of Assay Buffer to each well. The plates were read with an excitation and emission of 560 nm and 595 nM for red fluorescence and with an excitation and emission of 485 nm and 535 nM for green fluorescence to determine the final JC-1 value taking the red to green fluorescence ratio. This assay is based on change in mitochondrial membrane potential (MMP) using this lipophilic cationic dye, JC-1, by monitoring the changes in the ratio of red to green fluorescence as the MMP depolarizes. This change in MMP reflects the health of the cell with healthy, viable cells have a high JC-1 ratio and high MMP whereas apoptotic, unhealthy cells have a low JC-1 ratio or low MMP.
For the ability of compounds to reverse the stress due to serum deprivation and increase the JC-1 ratio, the percent maximal intensity in JC-1 ratio was normalized to that induced by the peak value for 10 μM dimebolin and plotted against the compound concentration to calculate EC50 values and to control for plate-to-plate variability. Concentration-response data were analyzed using GraphPad Prism (San Diego, Calif.); the EC50 values were derived from a single curve fit to the mean data of n=2-3, in duplicates.
All compounds were dissolved in dimethyl sulfoxide at 10 mM stock solutions and tested at a concentration that the dimethyl sulfoxide levels never exceeded 1%.

SMILES	Emax	EC50
O=c1ccnc2ccc(-n3c4c(c5ccccc53)[C@@H]3CC[C@H](C4)N3)cn12 (single isomer, unassigned) [Example 284]	108%	7.62 µM
Fc1ccc2c(c1)c1c(n2Cc2nc3ccccc3[nH]2)C2CCN(CC2)C1 [Example 250, 6-(1H-benzimidazol-2-ylmethyl)-9-fluoro-3,4,5,6-tetrahydro-1H-2,5-ethanoazepino[4,3-b]indole]	77.3%	8.37 µM
Cc1ccc2c(c1)c1c(n2CCc2ccc(C)nn2)C[C@H]2CC[C@@H]1N2C [Example 33, (7R,10S)-2,11-dimethyl-5-[2-(6-methylpyridazin-3-yl)ethyl]-5,6,7,8,9,10-hexahydro-7,10-epiminocyclohepta[b]indole]	97%	5.81 µM
COc1ccc2c(c1)c1c(n2CCc2ccc(C)nc2)CC2CCC1N2C (stereo not shown) [Example 91, 2-methoxy-11-methyl-5-[2-(6-methylpyridin-3-yl)ethyl]-5,6,7,8,9,10-hexahydro-7,10-epiminocyclohepta[b]indole]	129%	6.33 µM
CC(C)N(C)c1ccc(Cn2c3c(c4cc(F)ccc42)CN2CCC3CC2)cn1 [Example 242, 5-[(9-fluoro-1,3,4,5-tetrahydro-6H-2,5-ethanoazepino[4,3-b]indol-6-yl)methyl]-N-isopropyl-N-methylpyridin-2-amine]	169%	8.12 µM
CN1[C@H]2CC[C@@H]1c1c(n(-c3ccc4ncccc4c3)c3ccccc13)C2 [Example 281, (7S,10R)-11-methyl-5-(quinolin-6-yl)-5,6,7,8,9,10-hexahydro-7,10-epiminocyclohepta[b]indole]	228%	1.74 µM
Fc1ccc2c(c1)c1c(n2-c2ccc3cccnc3c2)C2CCN(CC2)C1 [Example 226, 9-fluoro-6-quinolin-7-yl-3,4,5,6-tetrahydro-1H-2,5-ethanoazepino[4,3-b]indole]	307%	1.68 µM
Fc1ccc2c(c1)c1c(n2-c2cccc(-n3cccn3)n2)C2CCN(CC2)C1 [Example 225, 9-fluoro-6-[6-(1H-pyrazol-1-yl)pyridin-2-yl]-3,4,5,6-tetrahydro-1H-2,5-ethanoazepino[4,3-b]indole]	209%	2.74 µM
Cc1ccc(CCn2c3c(c4ccccc42)C2CCC(C3)N2C)cn1 (stereo not shown) [Example 78, 11-methyl-5-[2-(6-methylpyridin-3-yl)ethyl]-5,6,7,8,9,10-hexahydro-7,10-epiminocyclohepta[b]indole]	211%	9.69 µM
O=c1cccnn1CCn1c2c(c3cc(F)ccc31)CN1CCC2CC1 [Example 238, 2-[2-(9-fluoro-1,3,4,5-tetrahydro-6H-2,5-ethanoazepino[4,3-b]indol-6-yl)ethyl]pyridazin-3(2H)-one]	86.5%	11.6 µM
O=C1COc2cc(-n3c4c(c5ccccc53)CN3CCC4CC3)ccc2N1 [Example 275, 7-(1,3,4,5-tetrahydro-6H-2,5-ethanoazepino[4,3-b]indol-6-yl)-2H-1,4-benzoxazin-3(4H)-one]	130%	3.44 µM
Cc1ccc(/C=C/n2c3c(c4cc(F)ccc42)CN2CCC3CC2)cn1 [Example 162, 9-fluoro-6-[(E)-2-(6-methylpyridin-3-yl)vinyl]-3,4,5,6-tetrahydro-1H-2,5-ethanoazepino[4,3-b]indole]	205%	17 µM
Cc1ccc2c(c1)c1c(n2CCc2ccc(C)nc2)CC2CCC1N2CC(F)(F)F (stereo not shown) [Example 14, 2-methyl-5-[2-(6-methylpyridin-3-yl)ethyl]-11-(2,2,2-trifluoroethyl)-5,6,7,8,9,10-hexahydro-7,10-epiminocyclohepta[b]indole]	110%	4.79 µM
CN1CCN(c2ccc(-n3c4c(c5ccccc53)CN3CCC4CC3)cc2)CC1 [Example 237, 6-[4-(4-methylpiperazin-1-yl)phenyl]-3,4,5,6-tetrahydro-1H-2,5-ethanoazepino[4,3-b]indole]	174%	2.48 µM
Cc1ccc2c(c1)c1c(n2CCc2ccccc2C)C[C@H]2CCC[C@@H]1N2 (single isomer, unassigned) [Example 127]	151%	3.69 µM
Cc1ccc2c(c1)c1c(n2-c2ccc3ncncc3c2)C2CCN(CC2)C1 [Example 219, 9-methyl-6-quinazolin-6-yl-3,4,5,6-tetrahydro-1H-2,5-ethanoazepino[4,3-b]indole]	201%	3.07 µM
c1cc(N2CCOCC2)nc(-n2c3c(c4ccccc42)CN2CCC3CC2)c1 [Example 265, 6-[6-(morpholin-4-yl)pyridin-2-yl]-3,4,5,6-tetrahydro-1H-2,5-ethanoazepino[4,3-b]indole]	264%	1.84 µM
Cc1ccc2c(c1)c1c(n2S(=O)(=O)c2ccc(Cl)cc2)C2CCN1CC2 [Example 215, 5-[(4-chlorophenyl)sulfonyl]-8-methyl-2,3,4,5-tetrahydro-1,4-ethanopyrido[3,2-b]indole]	196%	3.34 µM
Cc1ccc2c(c1)c1c(n2CCc2ccccc2C)C2CC3CC1CN(C3)C2 (stereo not shown) [Example 197, 11-methyl-8-[2-(2-methylphenyl)ethyl]-1,4,5,6,7,8-hexahydro-2H-1,5:3,7-dimethanoazonino[5,4-b]indole]	173%	5.63 µM
CN1C2CCC1c1c(n(CCc3ccc(Cl)cc3)c3ccc(C(C)(C)C)cc13)C2 (stereo not shown) [Example 105, 2-tert-butyl-5-[2-(4-chlorophenyl)ethyl]-11-methyl-5,6,7,8,9,10-hexahydro-7,10-epiminocyclohepta[b]indole]	129%	3.88 µM
Fc1ccc2c(c1)c1c(n2Cc2cccc3cccnc23)C2CCN(CC2)C1 [Example 251, 9-fluoro-6-(quinolin-8-ylmethyl)-3,4,5,6-tetrahydro-1H-2,5-ethanoazepino[4,3-b]indole]	193%	4.39 µM
CN1C2CCC1c1c(n(CCc3ccc(Cl)cc3)c3ccc(C(F)(F)F)cc13)C2 (stereo not shown) [Example 98, 5-[2-(4-chlorophenyl)ethyl]-11-methyl-2-(trifluoromethyl)-5,6,7,8,9,10-hexahydro-7,10-epiminocyclohepta[b]indole]	176%	7.26 µM
Fc1ccc2c(c1)c1c(n2Cc2ccc(C(F)(F)F)nc2)C2CCN(CC2)C1 [Example 183, 9-fluoro-6-{[6-(trifluoromethyl)pyridin-3-yl]methyl}-3,4,5,6-tetrahydro-1H-2,5-ethanoazepino[4,3-b]indole]	172%	8.97 µM
Fc1ccc2c(c1)c1c(n2Cc2ccc(Cl)nc2)C2CCN(CC2)C1 [Example 164, 6-[(6-chloropyridin-3-yl)methyl]-9-fluoro-3,4,5,6-tetrahydro-1H-2,5-ethanoazepino[4,3-b]indole]	197%	4.95 µM
Clc1ccc(CCn2c3c(c4cc(Br)ccc42)CN2CCC3CC2)cc1 [Example 174, 9-bromo-6-[2-(4-chlorophenyl)ethyl]-3,4,5,6-tetrahydro-1H-2,5-ethanoazepino[4,3-b]indole]	105%	5.48 µM
O=c1cccnn1-c1ccc(Cn2c3c(c4cc(F)ccc42)CN2CCC3CC2)cc1 [Example 255, 2-{4-[(9-fluoro-1,3,4,5-tetrahydro-6H-2,5-ethanoazepino[4,3-b]indol-6-yl)methyl]phenyl}pyridazin-3(2H)-one]	171%	5.72 µM
Cc1ccc2c(c1)c1c(n2CCc2ccc(Cl)cc2)C2CCN(CC2)C1 [Example 151, 6-[2-(4-chlorophenyl)ethyl]-9-methyl-3,4,5,6-tetrahydro-1H-2,5-ethanoazepino[4,3-b]indole]	121%	5.38 µM
CN1[C@@H]2CC[C@H]1c1c(n(-c3ccc4ncccc4c3)c3ccccc13)C2 [Example 286, (7R,10S)-11-methyl-5-(quinolin-6-yl)-5,6,7,8,9,10-hexahydro-7,10-epiminocyclohepta[b]indole]	239%	4.41 µM
Cc1ccc2c(c1)c1c(n2-c2ccc3ccncc3c2)C2CCN(CC2)C1 [Example 216, 6-isoquinolin-7-yl-9-methyl-3,4,5,6-tetrahydro-1H-2,5-ethanoazepino[4,3-b]indole]	284%	4.2 µM
